Test results published in US20170058282A1 (priority 2015, published 2017).

Key:
[1] = biological target: T1, Lactococcus lactis heme-responsive transcription factor HrtR, SEQ ID NO: 1 (in E. coli MG1655, HrtR+ChuA+PhrtAB-luxCDABE) (Lactococcus cremoris, UniProt A2RIY0); experiment: Hemin response of E. coli MG1655 with HrtR+ChuA+PhrtAB-luxCDABE (luminescence); format: cell-based
T1 sequence (A2RIY0 1-189): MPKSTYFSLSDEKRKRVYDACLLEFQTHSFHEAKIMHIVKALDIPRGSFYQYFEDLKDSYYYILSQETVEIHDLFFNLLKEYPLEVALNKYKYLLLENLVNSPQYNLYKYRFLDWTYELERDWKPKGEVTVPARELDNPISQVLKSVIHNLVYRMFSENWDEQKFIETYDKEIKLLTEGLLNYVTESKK

[2] = biological target: T2, Lactococcus lactis heme-responsive transcription factor HrtR, SEQ ID NO: 1 (in E. coli MG1655, no ChuA) (Lactococcus cremoris, UniProt A2RIY0); experiment: Hemin response of E. coli MG1655 with HrtR and PhrtAB- or PL(HrtO)-luxCDABE without ChuA (luminescence); format: cell-based
T2 construct: PhrtAB- or PL(HrtO)-luxCDABE reporter
T2 sequence (A2RIY0 1-189): T1 sequence (A2RIY0 1-189)

| SMILES | time to detectable differences in luminescence ([1]; depending on the concentration of hemin used) [min] | response of gene circuit to extracellular hemin [2] | response concentration range ([1]; with ChuA) |
| --- | --- | --- | --- |
| C=CC1=C(C)c2cc3[nH]c(cc4nc(cc5[nH]c(cc1n2)c(C)c5CCC(=O)O)C(CCC(=O)O)=C4C)c(C)c3C=C.[Fe+3] [hemin] | 30 to 60 | insensitive |  |
| C=CC1=C(C)c2cc3[nH]c(cc4nc(cc5[nH]c(cc1n2)c(C)c5CCC(=O)O)C(CCC(=O)O)=C4C)c(C)c3C=C.[Fe+2] [heme] |  |  | sub-micromolar range |
